Molecular target: phosphotriesterase from Sphingobium sp. TCM1 (Sb-PTE) (Sphingobium sp. TCM1, UniProt A0A077JBW9)
Assay: steady-state kinetics, release of p-nitrophenol
Assay type: biochemical
Settings: 50 mM HEPES/K+, pH 8.5, 30 °C; only aryl ester hydrolysis followed

SMILES	Km [µM]
COP(=O)(OC)Oc1ccc([N+](=O)[O-])cc1 [compound 3, dimethyl p-nitrophenyl phosphate]	760 ± 50
CCOP(=O)(OCC)Oc1ccc([N+](=O)[O-])cc1 [compound 11, paraoxon]	83 ± 9
